Among the data in patent publication US20230365533A1, “BICYCLOHEPTANE PYRROLIDINE OREXIN RECEPTOR AGONISTS” (MERCK SHARP & DOHME CORP., priority 2021, published 2023) are IC50 values, retold here.

This assay concerns the target T1, human OX2R (Homo sapiens, UniProt O43614).
T1 construct: expressed in transfected cells; host or cells: CHO (Chinese hamster ovary) cells, grown under G418 selection
T1 sequence (O43614 1-444): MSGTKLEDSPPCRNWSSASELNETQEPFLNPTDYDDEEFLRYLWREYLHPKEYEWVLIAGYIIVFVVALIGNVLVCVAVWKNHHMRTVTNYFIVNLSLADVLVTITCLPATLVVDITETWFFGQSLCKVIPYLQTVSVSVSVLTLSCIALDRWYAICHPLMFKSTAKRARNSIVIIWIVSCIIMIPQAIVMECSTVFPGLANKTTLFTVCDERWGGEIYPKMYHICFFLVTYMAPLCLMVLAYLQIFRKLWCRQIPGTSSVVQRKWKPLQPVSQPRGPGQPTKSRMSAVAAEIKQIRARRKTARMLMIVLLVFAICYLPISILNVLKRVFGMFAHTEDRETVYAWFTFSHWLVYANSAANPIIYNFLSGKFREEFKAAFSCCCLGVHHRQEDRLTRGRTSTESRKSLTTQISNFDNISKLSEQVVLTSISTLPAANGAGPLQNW
Briefly: IPOne (IP-1) orexin receptor agonist assay in CHO cells expressing human OX2R. The assay is classed as cell-based. To be noted: IPOne assay, CHO cells expressing human OX2R, 2 hours incubation; read-out: hoX2R_IP IC50. The method in brief: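 CHO cells with human OX2R treated 2 h at 37 °C with 10-point ½-log compound dilutions in stimulation buffer; IP-1 accumulation read by HTRF (665/620 nm) after 60 min detection. EC50 from four-parameter fit; % effect versus a 1 uM reference agonist.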
Take `COC(=O)N1[C@H](C)C[C@H](NS(=O)(=O)CF)[C@@H]1COC1CCC2(c3ncc(Cl)c(OC)n3)CC2C1` (stereo partly drawn) [Example 86, methyl (2R,3S,5R)-2-(((6-(5-chloro-4-methoxypyrimidin-2-yl)bicyclo[4.1.0]heptan-3-yl)oxy)methyl)-3-((fluoromethyl)sulfonamido)-5-methylpyrrolidine-1-carboxylate]: the IC50 came out at 9.9 nM. Turning to `COC(=O)N1[C@H](C)C[C@H](NS(=O)(=O)CF)[C@@H]1COC1CCC2(c3ncc(Br)cn3)CC2C1` (stereo partly drawn) [Example 89, methyl (2R,3S,5R)-2-(((6-(5-bromopyrimidin-2-yl)bicyclo[4.1.0]heptan-3-yl)oxy)methyl)-3-((fluoromethyl)sulfonamido)-5-methylpyrrolidine-1-carboxylate], the half-maximal inhibitory concentration (IC50) was determined as 1 nM. On to `COC(=O)N1[C@H](C)C[C@H](NS(=O)(=O)CF)[C@@H]1COC1CCC2(c3ncc(Cl)cn3)CC2C1` (stereo partly drawn) [Example 94, methyl (2R,3S,5R)-2-(((6-(5-chloropyrimidin-2-yl)bicyclo[4.1.0]heptan-3-yl)oxy)methyl)-3-((fluoromethyl)sulfonamido)-5-methylpyrrolidine-1-carboxylate], for which the concentration for half-maximal inhibition (IC50) was found to be 1.7 nM. In the case of `CC(C)OC(=O)N1[C@H](C)C[C@H](NS(=O)(=O)CF)[C@@H]1COC1CCC2(c3ncc(Cl)cn3)CC2C1` (stereo partly drawn) [Example 107, isopropyl (2R,3S,5R)-2-(((6-(5-chloropyrimidin-2-yl)bicyclo[4.1.0]heptan-3-yl)oxy)methyl)-3-((fluoromethyl)sulfonamido)-5-methylpyrrolidine-1-carboxylate] it was 4.5 nM; in that of `CC(C)OC(=O)N1[C@H](C)C[C@H](NS(=O)(=O)CF)[C@@H]1COC1CCC2(c3ncc(Br)cn3)CC2C1` (stereo partly drawn) [Example 108, isopropyl (2R,3S,5R)-2-(((6-(5-bromopyrimidin-2-yl)bicyclo[4.1.0]heptan-3-yl)oxy)methyl)-3-((fluoromethyl)sulfonamido)-5-methylpyrrolidine-1-carboxylate], 7.4 nM; in that of `CC(C)OC(=O)N1[C@H](C)C[C@H](NS(=O)(=O)C(F)F)[C@@H]1COC1CCC2(c3ncc(F)cn3)CC2C1` (stereo partly drawn) [Example 109, isopropyl (2R,3S,5R)-3-((difluoromethyl)sulfonamido)-2-(((6-(5-fluoropyrimidin-2-yl)bicyclo[4.1.0]heptan-3-yl)oxy)methyl)-5-methylpyrrolidine-1-carboxylate], 3.5 nM. As for `CC(C)OC(=O)N1[C@H](C)C[C@H](NS(=O)(=O)CF)[C@@H]1COC1CCC2(c3ncc(F)cn3)CC2C1` (stereo partly drawn) [Example 111, isopropyl (2R,3S,5R)-3-((fluoromethyl)sulfonamido)-2-(((6-(5-fluoropyrimidin-2-yl)bicyclo[4.1.0]heptan-3-yl)oxy)methyl)-5-methylpyrrolidine-1-carboxylate], the half-inhibitory concentration (IC50) was found to be 1 nM.

As to `COC(=O)N1[C@H](C(F)F)C[C@H](NS(=O)(=O)C2CC2)[C@@H]1COC1CCC2(c3ncc(F)cn3)CC2C1` (stereo partly drawn) [Example 116, methyl (2R,3S,5S)-3-(cyclopropanesulfonamido)-5-(difluoromethyl)-2-(((6-(5-fluoropyrimidin-2-yl)bicyclo[4.1.0]heptan-3-yl)oxy)methyl)pyrrolidine-1-carboxylate], the 50% inhibitory concentration (IC50) is 2.3 nM. Regarding `CCS(=O)(=O)N[C@H]1C[C@@H](C(F)F)N(C(=O)OC)[C@H]1COC1CCC2(c3ncc(F)cn3)CC2C1` (stereo partly drawn) [Example 117, methyl (2R,3S,5S)-5-(difluoromethyl)-3-(ethylsulfonamido)-2-(((6-(5-fluoropyrimidin-2-yl)bicyclo[4.1.0]heptan-3-yl)oxy)methyl)pyrrolidine-1-carboxylate], the half-inhibitory concentration (IC50) came out at 1.2 nM. For `CC(C)OC(=O)N1[C@H](C(F)F)C[C@H](NS(C)(=O)=O)[C@@H]1CO[C@H]1CC[C@@]2(c3ncc(F)cn3)C[C@H]2C1` [Example 119, isopropyl (2R,3S,5S)-5-(difluoromethyl)-2-((((1S,3S,6R)-6-(5-fluoropyrimidin-2-yl)bicyclo[4.1.0]heptan-3-yl)oxy)methyl)-3-(methylsulfonamido)pyrrolidine-1-carboxylate], the half-inhibitory concentration (IC50) was 1.4 nM.
